Measurements taken from ChEMBL document CHEMBL4004849, “Tetrazolylmethyl quinolines: Design, docking studies, synthesis, anticancer and antifungal analyses” (2017).
Converted amounts (≈) assume the structure as drawn. The source made the active and inactive calls. The rule behind the calls is not given here.

Tests used:
Assay type in all cases: functional
HL-60(TB) = test: Growth inhibition of human HL-60(TB) cells at 10^-5 M incubated for 48 hrs by sulforhodamine B assay relative to control
MOLT-4 = test: Growth inhibition of human MOLT4 cells at 10^-5 M incubated for 48 hrs by sulforhodamine B assay relative to control
SR = test: Growth inhibition of human SR cells at 10^-5 M incubated for 48 hrs by sulforhodamine B assay relative to control
A549 = test: Growth inhibition of human A549/ATCC cells at 10^-5 M incubated for 48 hrs by sulforhodamine B assay relative to control
EKVX = test: Growth inhibition of human EKVX cells at 10^-5 M incubated for 48 hrs by sulforhodamine B assay relative to control
NCI-H226 = test: Growth inhibition of human NCI-H226 cells at 10^-5 M incubated for 48 hrs by sulforhodamine B assay relative to control
NCI-H522 = test: Growth inhibition of human NCI-H522 cells at 10^-5 M incubated for 48 hrs by sulforhodamine B assay relative to control
COLO 205 = test: Growth inhibition of human COLO205 cells at 10^-5 M incubated for 48 hrs by sulforhodamine B assay relative to control
HCC 2998 = test: Growth inhibition of human HCC2998 cells at 10^-5 M incubated for 48 hrs by sulforhodamine B assay relative to control
HCT-116 = test: Growth inhibition of human HCT116 cells at 10^-5 M incubated for 48 hrs by sulforhodamine B assay relative to control
HCT-15 = test: Growth inhibition of human HCT15 cells at 10^-5 M incubated for 48 hrs by sulforhodamine B assay relative to control
HT-29 = test: Growth inhibition of human HT-29 cells at 10^-5 M incubated for 48 hrs by sulforhodamine B assay relative to control
KM12 = test: Growth inhibition of human KM12 cells at 10^-5 M incubated for 48 hrs by sulforhodamine B assay relative to control
SF-268 = test: Growth inhibition of human SF268 cells at 10^-5 M incubated for 48 hrs by sulforhodamine B assay relative to control
SF-295 = test: Growth inhibition of human SF295 cells at 10^-5 M incubated for 48 hrs by sulforhodamine B assay relative to control
SF-539 = test: Growth inhibition of human SF539 cells at 10^-5 M incubated for 48 hrs by sulforhodamine B assay relative to control
SNB-19 = test: Growth inhibition of human SNB19 cells at 10^-5 M incubated for 48 hrs by sulforhodamine B assay relative to control
SNB-75 = test: Growth inhibition of human SNB75 cells at 10^-5 M incubated for 48 hrs by sulforhodamine B assay relative to control
U-251 = test: Growth inhibition of human U251 cells at 10^-5 M incubated for 48 hrs by sulforhodamine B assay relative to control
LOX IMVI = test: Growth inhibition of human LOXIMVI cells at 10^-5 M incubated for 48 hrs by sulforhodamine B assay relative to control
Malme-3M = test: Growth inhibition of human MALME-3M cells at 10^-5 M incubated for 48 hrs by sulforhodamine B assay relative to control
M14 = test: Growth inhibition of human M14 cells at 10^-5 M incubated for 48 hrs by sulforhodamine B assay relative to control
MDA-MB-435 = test: Growth inhibition of human MDA-MB-435 cells at 10^-5 M incubated for 48 hrs by sulforhodamine B assay relative to control
SK-MEL-2 = test: Growth inhibition of human SK-MEL-2 cells at 10^-5 M incubated for 48 hrs by sulforhodamine B assay relative to control
SK-MEL-28 = test: Growth inhibition of human SK-MEL-28 cells at 10^-5 M incubated for 48 hrs by sulforhodamine B assay relative to control
SK-MEL-5 = test: Growth inhibition of human SK-MEL-5 cells at 10^-5 M incubated for 48 hrs by sulforhodamine B assay relative to control
UACC-257 = test: Growth inhibition of human UACC257 cells at 10^-5 M incubated for 48 hrs by sulforhodamine B assay relative to control
OVCAR-3 = test: Growth inhibition of human OVCAR3 cells at 10^-5 M incubated for 48 hrs by sulforhodamine B assay relative to control
OVCAR-4 = test: Growth inhibition of human OVCAR4 cells at 10^-5 M incubated for 48 hrs by sulforhodamine B assay relative to control
OVCAR-5 = test: Growth inhibition of human OVCAR5 cells at 10^-5 M incubated for 48 hrs by sulforhodamine B assay relative to control
NCI/ADR-RES = test: Growth inhibition of human NCI-ADR-RES cells at 10^-5 M incubated for 48 hrs by sulforhodamine B assay relative to control
SK-OV-3 = test: Growth inhibition of human SKOV3 cells at 10^-5 M incubated for 48 hrs by sulforhodamine B assay relative to control
786-0 = test: Growth inhibition of human 786-0 cells at 10^-5 M incubated for 48 hrs by sulforhodamine B assay relative to control
CAKI-1 = test: Growth inhibition of human Caki1 cells at 10^-5 M incubated for 48 hrs by sulforhodamine B assay relative to control
UO-31 = test: Growth inhibition of human UO31 cells at 10^-5 M incubated for 48 hrs by sulforhodamine B assay relative to control
MCF7 = test: Growth inhibition of human MCF7 cells at 10^-5 M incubated for 48 hrs by sulforhodamine B assay relative to control
MDA-MB-231 = test: Growth inhibition of human MDA-MB-231/ATCC cells at 10^-5 M incubated for 48 hrs by sulforhodamine B assay relative to control
Hs-578T = test: Growth inhibition of human Hs 578T cells at 10^-5 M incubated for 48 hrs by sulforhodamine B assay relative to control
BT-549 = test: Growth inhibition of human BT549 cells at 10^-5 M incubated for 48 hrs by sulforhodamine B assay relative to control
T47D = test: Growth inhibition of human T47D cells at 10^-5 M incubated for 48 hrs by sulforhodamine B assay relative to control
MDA-MB-468 = test: Growth inhibition of human MDA-MB-468 cells at 10^-5 M incubated for 48 hrs by sulforhodamine B assay relative to control
Candida albicans = test: Antifungal activity against Candida albicans after 24 hrs by serial dilution method
Aspergillus fumigatus [1] = test: Antifungal activity against Aspergillus fumigatus at 100 ug/ml by disc diffusion method; settings: read-out: IZ
Aspergillus fumigatus [2] = test: Antifungal activity against Aspergillus fumigatus after 24 hrs by serial dilution method

**Q.** How did the “growth inhibition (GI)” value (HL-60(TB)) turn out when Fc1ccc2nc(Cl)c(Cn3nnc(Cc4ccccc4)n3)cc2c1 was run?
**A.** Active

**Q.** What about the “growth inhibition (GI)” value (MOLT-4) of the same molecule?
**A.** Active

**Q.** And the “growth inhibition (GI)” value (SR)?
**A.** Active

**Q.** And the “growth inhibition (GI)” value (A549)?
**A.** Active

**Q.** And the “growth inhibition (GI)” value (EKVX)?
**A.** Active

**Q.** What about the “growth inhibition (GI)” value (NCI-H226) of the same molecule?
**A.** Active

**Q.** And the “growth inhibition (GI)” value (NCI-H522)?
**A.** Active

**Q.** And the “growth inhibition (GI)” value (COLO 205)?
**A.** Active

**Q.** What about the “growth inhibition (GI)” value (HCC 2998) of the same molecule?
**A.** Active

**Q.** What about the “growth inhibition (GI)” value (HCT-116) of the same molecule?
**A.** Active

**Q.** What about the “growth inhibition (GI)” value (HCT-15) of the same molecule?
**A.** Active

**Q.** And the “growth inhibition (GI)” value (HT-29)?
**A.** Active

**Q.** What about the “growth inhibition (GI)” value (KM12) of the same molecule?
**A.** Active

**Q.** What about the “growth inhibition (GI)” value (SF-268) of the same molecule?
**A.** Active

**Q.** And the “growth inhibition (GI)” value (SF-295)?
**A.** Active

**Q.** And the “growth inhibition (GI)” value (SF-539)?
**A.** Active

**Q.** And the “growth inhibition (GI)” value (SNB-19)?
**A.** Active

**Q.** And the “growth inhibition (GI)” value (SNB-75)?
**A.** Active

**Q.** What about the “growth inhibition (GI)” value (U-251) of the same molecule?
**A.** Active

**Q.** And the “growth inhibition (GI)” value (LOX IMVI)?
**A.** Active

**Q.** What about the “growth inhibition (GI)” value (Malme-3M) of the same molecule?
**A.** Active

**Q.** And the “growth inhibition (GI)” value (M14)?
**A.** Active

**Q.** And the “growth inhibition (GI)” value (MDA-MB-435)?
**A.** Active

**Q.** And the “growth inhibition (GI)” value (SK-MEL-2)?
**A.** Active

**Q.** What about the “growth inhibition (GI)” value (SK-MEL-28) of the same molecule?
**A.** Active

**Q.** What about the “growth inhibition (GI)” value (SK-MEL-5) of the same molecule?
**A.** Active

**Q.** What about the “growth inhibition (GI)” value (UACC-257) of the same molecule?
**A.** Active

**Q.** And the “growth inhibition (GI)” value (OVCAR-3)?
**A.** Active

**Q.** And the “growth inhibition (GI)” value (OVCAR-4)?
**A.** Active

**Q.** And the “growth inhibition (GI)” value (OVCAR-5)?
**A.** Active

**Q.** And the “growth inhibition (GI)” value (NCI/ADR-RES)?
**A.** Active

**Q.** What about the “growth inhibition (GI)” value (SK-OV-3) of the same molecule?
**A.** Active

**Q.** And the “growth inhibition (GI)” value (786-0)?
**A.** Active

**Q.** And the “growth inhibition (GI)” value (CAKI-1)?
**A.** Active

**Q.** What about the “growth inhibition (GI)” value (UO-31) of the same molecule?
**A.** Active

**Q.** And the “growth inhibition (GI)” value (MCF7)?
**A.** Active

**Q.** And the “growth inhibition (GI)” value (MDA-MB-231)?
**A.** Active

**Q.** And the “growth inhibition (GI)” value (Hs-578T)?
**A.** Active

**Q.** And the “growth inhibition (GI)” value (BT-549)?
**A.** Active

**Q.** And the “growth inhibition (GI)” value (T47D)?
**A.** Active

**Q.** And the “growth inhibition (GI)” value (MDA-MB-468)?
**A.** Active

**Q.** And the MIC (Candida albicans)?
**A.** 25 µg/mL (≈ 70.7 µM)

**Q.** And the zone of inhibition at 100 µg/mL (Aspergillus fumigatus [1])?
**A.** 15 mm

**Q.** And the MIC (Aspergillus fumigatus [2])?
**A.** 25 µg/mL (≈ 70.7 µM)
